The results in this text go back to US20260265239A1, “CRYSTAL FORM OF 2,6-PIPERIDINEDIONE COMPOUND, AND PREPARATION METHOD THEREFOR AND USE THEREOF” (ZHANGZHOU PIEN TZE HUANG PHARMACEUTICAL CO., LTD., priority 2023, published 2026).

Data set [1] concerns human diffuse large B-cell lymphoma TMD-8 cells. The data set can be described thus: BALB/c nude mouse subcutaneous xenograft tumor model of human diffuse large B-cell lymphoma TMD-8 cells. The format is in vivo, BALB/c nude mice. The settings on record: for Tumor Volume (Day 0) / Tumor Volume (Day 22): mean ± SEM. As for the experimental part:
The antitumor effect of the test compound was evaluated using a BALB/c nude mouse subcutaneous xenograft tumor model of human diffuse large B-cell lymphoma TMD-8 cells.
• 1. Experimental animals: BALB/c nude mice, female, 6 to 8 weeks old. Vital River Laboratory Animal Technology Co., Ltd. • 2. Cell line: Human diffuse large B-cell lymphoma TMD-8 cells (purchased from Shanghai Huzhen Industrial Co., Ltd.).
Cell culture: Routine cell culture was conducted in RPMI-1640 medium containing 10% fetal bovine serum under 5% CO2 at 37° C. Cells were passaged based on cell growth conditions at a passage ratio of 1:3 to 1:4.
Tumor cell inoculation and grouping: TMD-8 cells in the logarithmic growth phase were harvested, counted, and resuspended in a mixture of 50% serum-free RPMI-1640 medium and 50% Matrigel. The cell concentration was adjusted to 4.0×10^7 cells/mL. The cell suspension was placed in an ice box, aspirated using a 1-mL syringe, and injected subcutaneously into the right forelimb axilla of nude mice at 200 μL per animal (0.8×10^7 cells/mouse) to establish the TMD-8 xenograft tumor model. Administration was started when the average tumor volume reached approximately 160 mm^3. The day of grouping was designated as Day 1 (D1) of the experiment, and administration was started based on animal body weight.
The pharmacodynamic experiment was conducted with a 7-day administration cycle, where the test compound was administered once daily intragastrically at 24-hour intervals, for a total of three cycles. During the experiment, animal body weight and tumor size were measured twice a week, and clinical symptoms were observed and recorded daily.
The test compound was administered at doses of 10 mg/kg, 30 mg/kg, and 100 mg/kg, with the vehicle being 10% DMSO/10% Solutol HS15/80% water. Tumor volume (TV) was calculated using the formula: ½×a×b^2, where a and b represent the measured length and width of the tumor, respectively. The tumor growth inhibition rate (TGI, %) was calculated using the formula: TGI (%)=[1−(average tumor volume at the end of administration in a treatment group−average tumor volume at the beginning of administration in this treatment group)/(average tumor volume at the end of treatment in the vehicle control group−average tumor volume at the beginning of treatment in the vehicle control group)]×100%. The relative tumor proliferation rate (T/C, %) was calculated using the formula: T/C %=TRTV/CRTV[…] (TRTV: mean RTV of the treatment group; CRTV: mean RTV of the negative control group). The relative tumor volume (RTV) was calculated based on the tumor measurement results, with the formula RTV=Vt/V0, where V0 is the tumor volume measured at the time of grouping administration (i.e., Day 1), and Vt is the tumor volume at a certain measurement time. TRTV and CRTV were derived from data on the same day.
The experimental data were calculated and subjected to relevant statistical processing using Microsoft Office Excel 2007 software. Unless otherwise specified, the data were expressed as mean±standard error (Mean±SE), and comparisons between groups were performed using t-tests.

Data set [2] can be described thus: Pharmacokinetic evaluation in beagle dogs. Format: in vivo. The source says:
Male beagle dogs were selected as the experimental animals in this study. The LC/MS/MS method was employed to quantitatively determine the plasma drug concentrations at different time points after intravenous injection or intragastric administration of the test compound, aiming to evaluate the pharmacokinetic characteristics of the compound of the present disclosure in beagle dogs.
Beagle dogs (male, 7 to 10 kg, Beijing Mars Biotechnology Co., Ltd.).
A solution of the test compound was slowly injected intravenously into beagle dogs (fed) via the peripheral vein (vehicle: 5% DMSO/10% Solutol/85% H2O), or administered intragastrically to beagle dogs (fed). For intravenous administration, 0.5 mL of blood was collected from the peripheral vein at 0.083, 0.25, 0.5, 1, 2, 4, 6, 8, and 24 h after administration, placed in EDTA-2K anticoagulant tubes, and centrifuged at 3200 g for 10 minutes at 2 to 8° C. to separate the supernatant. For intragastric administration, 0.5 mL of blood was collected from the peripheral vein at 0.083, 0.25, 0.5, 1, 2, 4, 6, 8, and 24 h after administration, placed in EDTA-2K anticoagulant tubes, and centrifuged at 3200 g for 10 minutes at 2 to 8° C. to separate the supernatant. Plasma drug concentrations were determined by the LC-MS/MS method, and relevant pharmacokinetic parameters were calculated using Phoenix WinNonlin 6.3 or 8.3.5 pharmacokinetic software with non-compartmental model linear-log trapezoidal method.

Where [3] appears, read: 10 mg/kg intragastric once daily.
The mark [4] stands for this setting: 30 mg/kg intragastric once daily.
Where [5] appears, read: 100 mg/kg intragastric once daily.
[6] abbreviates: Intragastric administration, 5 mg/kg.
The mark [7] stands for this setting: Intragastric administration, 15 mg/kg.
Setting [8] is: Intravenous Injection (0.5 mg/kg).

Counter-ions that a name gives are not always drawn.

`O=C1CCC(c2noc3ccc4c(NC(=O)CN5CCN(C[C@H]6CC[C@H](n7cc(NC(=O)c8coc(-c9ccnc(NCC%10CC%10)c9)n8)c(C(F)F)n7)CC6)CC5)cccc4c23)C(=O)N1` (some centres unmarked) [Hydrochloride of Compound of Formula (I)]: in data set [1] (setting [3]), the “T/C (Day 22)” value is recorded as 58%, the “TGI (Day 22)” value was determined as 49%, the “Tumor Volume (Day 0)” value was 161 ± 12 mm^3 and the “Tumor Volume (Day 22)” value came out at 714 ± 153 mm^3. In data set [1] (setting [4]), the “T/C (Day 22)” value is given as 34%, the “TGI (Day 22)” value came out at 75%, the “Tumor Volume (Day 0)” value is reported as 160 ± 9 mm^3 and the “Tumor Volume (Day 22)” value turned out to be 430 ± 98 mm^3. Moreover, in data set [1] (setting [5]), the “T/C (Day 22)” value is reported as 23%, the “TGI (Day 22)” value is reported as 88%, the “Tumor Volume (Day 0)” value was 160 ± 8 mm^3 and the “Tumor Volume (Day 22)” value worked out at 291 ± 70 mm^3. In data set [2] (setting [6]), the “Area Under the Drug-Time Curve (0-inf)” value came out at 3.20 µM·h, the “Peak Concentration” value turned out to be 0.41 µM and the “Time to Peak Concentration” value is reported as 4.00 h. Besides, in data set [2] (setting [7]), the “Area Under the Drug-Time Curve (0-inf)” value turned out to be 8.02 µM·h, the “Peak Concentration” value stood at 0.87 µM and the “Time to Peak Concentration” value stood at 4.00 h. In addition, in data set [2] (setting [8]), the “Apparent Distribution Volume” value was 5.83 L/kg and the “Area Under the Drug-Time Curve (0-inf)” value came to 0.44 µM·h.
